According to the NIST ThermoML archive (doi:10.1021/je500792x):
± gives the expanded uncertainty stated by the source.

Assay: xn = mol fraction of the nth substance listed
Details: Gas, Buoyancy - hydrostatic balance with magnetic suspension - two sinkers

Q: Which mass density (248.15 K, 120.09 kPa, x1 = 0.5069) does the source give for `C` [methane] + CCC here?
A: 1.7641 ± 0.003 kg/m3

Q: What about the mass density (248.15 K, 129.19 kPa, x1 = 0.2658) of the same compound?
A: 2.3527 ± 0.0032 kg/m3

Q: What about the mass density (248.15 K, 129.2 kPa, x1 = 0.2658) of the same compound?
A: 2.353 ± 0.0032 kg/m3

Q: What about the mass density (248.15 K, 141.7 kPa, x1 = 0.2658) of the same compound?
A: 2.5862 ± 0.0032 kg/m3

Q: What about the mass density (248.15 K, 159.47 kPa, x1 = 0.2658) of the same compound?
A: 2.9223 ± 0.0034 kg/m3

Q: And the mass density (248.15 K, 183.4 kPa, x1 = 0.5069)?
A: 2.7164 ± 0.0034 kg/m3

Q: And the mass density (248.15 K, 184.56 kPa, x1 = 0.2658)?
A: 3.3988 ± 0.0034 kg/m3

Q: What about the mass density (248.15 K, 188.16 kPa, x1 = 0.2658) of the same compound?
A: 3.4688 ± 0.0034 kg/m3

Q: And the mass density (248.15 K, 217.78 kPa, x1 = 0.2658)?
A: 4.0405 ± 0.0035 kg/m3

Q: And the mass density (248.15 K, 220.8 kPa, x1 = 0.2658)?
A: 4.0982 ± 0.0035 kg/m3

Q: What about the mass density (248.15 K, 244.4 kPa, x1 = 0.5069) of the same compound?
A: 3.6498 ± 0.0038 kg/m3

Q: And the mass density (248.15 K, 251.13 kPa, x1 = 0.2658)?
A: 4.6926 ± 0.0036 kg/m3

Q: And the mass density (248.15 K, 251.49 kPa, x1 = 0.2658)?
A: 4.7012 ± 0.0036 kg/m3

Q: What about the mass density (248.15 K, 271.99 kPa, x1 = 0.2658) of the same compound?
A: 5.106 ± 0.0036 kg/m3

Q: What about the mass density (248.15 K, 275.99 kPa, x1 = 0.2658) of the same compound?
A: 5.1859 ± 0.0037 kg/m3

Q: What about the mass density (248.15 K, 303.31 kPa, x1 = 0.5069) of the same compound?
A: 4.5661 ± 0.0039 kg/m3

Q: What about the mass density (248.15 K, 360.5 kPa, x1 = 0.5069) of the same compound?
A: 5.4702 ± 0.0043 kg/m3

Q: And the mass density (248.15 K, 424.87 kPa, x1 = 0.5069)?
A: 6.5055 ± 0.0045 kg/m3

Q: And the mass density (248.16 K, 96.6 kPa, x1 = 0.2658)?
A: 1.7469 ± 0.0031 kg/m3

Q: And the mass density (248.16 K, 390.04 kPa, x1 = 0.7498)?
A: 4.4826 ± 0.0035 kg/m3

Q: What about the mass density (248.16 K, 500.33 kPa, x1 = 0.7498) of the same compound?
A: 5.7986 ± 0.0037 kg/m3

Q: And the mass density (248.16 K, 580.7 kPa, x1 = 0.7498)?
A: 6.7717 ± 0.0038 kg/m3

Q: What about the mass density (248.16 K, 685.07 kPa, x1 = 0.7498) of the same compound?
A: 8.0551 ± 0.0039 kg/m3

Q: What about the mass density (248.16 K, 786.24 kPa, x1 = 0.7498) of the same compound?
A: 9.3205 ± 0.0041 kg/m3

Q: And the mass density (248.16 K, 835.6 kPa, x1 = 0.7498)?
A: 9.9461 ± 0.0042 kg/m3

Q: And the mass density (248.17 K, 276.07 kPa, x1 = 0.7498)?
A: 3.1456 ± 0.0033 kg/m3

Q: And the mass density (273.15 K, 123.94 kPa, x1 = 0.2658)?
A: 2.0343 ± 0.0031 kg/m3

Q: And the mass density (273.15 K, 149.35 kPa, x1 = 0.2658)?
A: 2.4607 ± 0.0032 kg/m3

Q: What about the mass density (273.15 K, 167.49 kPa, x1 = 0.2658) of the same compound?
A: 2.7678 ± 0.0032 kg/m3

Q: And the mass density (273.15 K, 198.96 kPa, x1 = 0.2658)?
A: 3.3031 ± 0.0033 kg/m3

Q: What about the mass density (273.15 K, 218.04 kPa, x1 = 0.5069) of the same compound?
A: 2.9261 ± 0.0032 kg/m3

Q: And the mass density (273.15 K, 242.18 kPa, x1 = 0.2658)?
A: 4.0482 ± 0.0035 kg/m3

Q: What about the mass density (273.15 K, 247.99 kPa, x1 = 0.2658) of the same compound?
A: 4.1483 ± 0.0035 kg/m3

Q: What about the mass density (273.15 K, 258.4 kPa, x1 = 0.5069) of the same compound?
A: 3.4829 ± 0.0036 kg/m3

Q: And the mass density (273.15 K, 262.29 kPa, x1 = 0.5069)?
A: 3.5352 ± 0.0034 kg/m3

Q: What about the mass density (273.15 K, 269.26 kPa, x1 = 0.5069) of the same compound?
A: 3.6315 ± 0.0035 kg/m3

Q: And the mass density (273.15 K, 277.28 kPa, x1 = 0.5069)?
A: 3.7427 ± 0.0039 kg/m3

Q: What about the mass density (273.15 K, 300.07 kPa, x1 = 0.2658) of the same compound?
A: 5.0612 ± 0.0036 kg/m3

Q: And the mass density (273.15 K, 309 kPa, x1 = 0.5069)?
A: 4.1836 ± 0.0038 kg/m3

Q: And the mass density (273.15 K, 321.34 kPa, x1 = 0.5069)?
A: 4.3576 ± 0.0037 kg/m3

Q: And the mass density (273.15 K, 323.08 kPa, x1 = 0.5069)?
A: 4.3804 ± 0.004 kg/m3

Q: What about the mass density (273.15 K, 340.35 kPa, x1 = 0.5069) of the same compound?
A: 4.6226 ± 0.0041 kg/m3

Q: What about the mass density (273.15 K, 344.34 kPa, x1 = 0.2658) of the same compound?
A: 5.85 ± 0.0037 kg/m3

Q: What about the mass density (273.15 K, 347.43 kPa, x1 = 0.2658) of the same compound?
A: 5.905 ± 0.0037 kg/m3

Q: And the mass density (273.15 K, 396.65 kPa, x1 = 0.2658)?
A: 6.7965 ± 0.0039 kg/m3

Q: What about the mass density (273.15 K, 401.7 kPa, x1 = 0.2658) of the same compound?
A: 6.8905 ± 0.0039 kg/m3

Q: What about the mass density (273.15 K, 402.73 kPa, x1 = 0.5069) of the same compound?
A: 5.504 ± 0.0043 kg/m3

Q: And the mass density (273.15 K, 406.45 kPa, x1 = 0.2658)?
A: 6.9764 ± 0.0039 kg/m3

Q: What about the mass density (273.15 K, 409.05 kPa, x1 = 0.5069) of the same compound?
A: 5.5939 ± 0.0043 kg/m3

Q: What about the mass density (273.15 K, 415.33 kPa, x1 = 0.5069) of the same compound?
A: 5.6832 ± 0.0044 kg/m3

Q: What about the mass density (273.15 K, 430.8 kPa, x1 = 0.2658) of the same compound?
A: 7.425 ± 0.0041 kg/m3

Q: What about the mass density (273.15 K, 441.3 kPa, x1 = 0.5069) of the same compound?
A: 6.0553 ± 0.0047 kg/m3

Q: What about the mass density (273.15 K, 445.43 kPa, x1 = 0.2658) of the same compound?
A: 7.6956 ± 0.0041 kg/m3

Q: And the mass density (273.15 K, 453.52 kPa, x1 = 0.5069)?
A: 6.2301 ± 0.0047 kg/m3

Q: What about the mass density (273.15 K, 486.1 kPa, x1 = 0.2658) of the same compound?
A: 8.4581 ± 0.0042 kg/m3

Q: And the mass density (273.15 K, 491.06 kPa, x1 = 0.5069)?
A: 6.7718 ± 0.0049 kg/m3

Q: What about the mass density (273.15 K, 491.24 kPa, x1 = 0.2658) of the same compound?
A: 8.5547 ± 0.0042 kg/m3

Q: And the mass density (273.15 K, 491.73 kPa, x1 = 0.2658)?
A: 8.5641 ± 0.0042 kg/m3

Q: And the mass density (273.15 K, 492.46 kPa, x1 = 0.7498)?
A: 5.1329 ± 0.0036 kg/m3
